# No end group written: not given here.
# How the values were obtained:
# [1] = tested on: C. tropicalis IOC 4560; assay: Liquid growth inhibition assay, MIC (antifungal); format: cell-based, Candida tropicalis; conditions: 37° C., 24 h
# How it was run: (§1)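 Peptides were tested in two-fold serial dilutions (0.09-50 μmol L^−1) in Peptone Broth for bacteria or Potato Dextrose Broth for fungi. Plates were incubated at 37° C. for 18 h (bacteria) or 24 h (fungi), and growth was read as absorbance at 595 nm.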
# [2] = tested on: B. megaterium ATCC 10778; assay: Liquid growth inhibition assay, MIC; format: cell-based, Bacillus megaterium; conditions: 37° C., 18 h
# How it was run: as §1
# [3] = tested on: C. albicans MDM8; assay: Liquid growth inhibition assay, MIC (antifungal); format: cell-based, Candida albicans; conditions: 37° C., 24 h
# How it was run: as §1
# [4] = tested on: M. luteus A270; assay: Liquid growth inhibition assay, MIC; format: cell-based, Micrococcus luteus; conditions: 37° C., 18 h
# How it was run: as §1
# [5] = tested on: S. marcescens ATCC 4112; assay: Liquid growth inhibition assay, MIC; format: cell-based, Serratia marcescens; conditions: 37° C., 18 h
# How it was run: as §1
# [6] = tested on: S. epidermidis ATCC 12228; assay: Liquid growth inhibition assay, MIC; format: cell-based; conditions: 37° C., 18 h
# [7] = tested on: human erythrocytes; assay: Hemolytic activity assay; format: cell-based; conditions: human erythrocytes, 1 h; for MHC: room temperature, concentration with approximately 0% of hemolytic activity
# How it was run: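 Fresh heparinised human erythrocytes incubated with peptide at 0.1 to 100 μmol L−1 for 1 h at room temperature; supernatant absorbance at 405 nm after centrifugation. MHC taken as highest concentration with 100% erythrocytes viable; SDS and PBS as positive and negative controls, three biological repeats.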
# [8] = tested on: A. baumannii ATCC19606; assay: NPN uptake assay, outer membrane permeabilization; format: cell-based; conditions: peptides at their MIC
# Procedure: Method. Membrane permeabilization was assessed for two of the naturally occurring peptides (VmCT1 and temporin A) and two of the hybrids [VmCT1-temporin A (VT) and temporin A-VmCT1 (TV)] at their MIC by using the N-phenyl-1-naphthylamine (NPN) uptake assay as previously described^104, 105. Briefly, A. baumannii ATCC19606 cells were grown to an optical density at 600 nm (OD600) of 0.4, centrifuged (10,000 rpm at 4° C. to 10 minutes), washed, and resuspended in buffer (5 mmol L^−1 HEPES, 5 mmol L^−1 glucose, pH 7.4). Four μL of NPN solution (0.5 mmol L^−1; working concentration of 10 μmol L^−1, after dilutions) was added to 100 μL of the bacterial solution in 96-well plates. The background fluorescence was then determined at λex=350 nm and […]. The peptides resuspended in water (100 μL at a concentration of 1.2 μmol L^−1) were added to each 96-well plate. The fluorescence was determined as a function of time until no further increase in fluorescence was observed (45 min).
# [9] = Circular dichroism, helical fraction (Lifson-Roig); format: physicochemical; conditions: peptide 50 μmol L^−1; for Helical fraction (fH) PBS: PBS 10 mmol L^−1, pH 7.4; for Helical fraction (fH) POPC: POPC 10 mmol L^−1; for Helical fraction (fH) POPC:DOPE: POPC:DOPE 3:1, mol:mol; for Helical fraction (fH) POPC:DOPE / Helical fraction (fH) POPC:POPG: 10 mmol L^−1; for Helical fraction (fH) POPC:POPG: POPC:POPG 3:1, mol:mol; for Helical fraction (fH) SDS: SDS 20 mmol L^−1 in water; for Helical fraction (fH) TFE/Water: TFE in water (3:2, v:v)
# Procedure: Method. Circular dichroism (CD) assays were performed with a Spectropolarimeter Jasco Mod. J-815 (JascoCorp). CD spectra were obtained in Far-UV (195-260 nm), and analyzed in the following solutions: water, 2,2,2-trifluoroethanol (TFE) in water (3:2, v:v), phosphate buffer saline (PBS, 10 mmol L^−1, pH 7.4), sodium dodecyl sulfate (SDS 20 mmol L^−1) in water, palmitoyloleoylphosphatidylcholine (POPC; 10 mmol L^−1), palmitoyloleoylphosphatidylcholine:dioleylphosphatidylethanolamine (POPC:DOPE; 3:1, mol:mol, 10 mmol L^−1) and palmitoyloleoylphosphatidylcholine:palmitoyloleoylphosphatidylglycerol (POPC:POPG; 3:1, mol:mol, 10 mmol L^−1) at a peptide concentration of 50 μmol L^−1. These experiments were performed as described in detail by Pedron et al.^62.
# [10] = tested on: S. aureus ATCC12600; assay: Broth microdilution MIC, ESKAPE pathogens; format: cell-based; conditions: LB, 37° C., 24 h
# Procedure: (§2) Method. The minimal inhibitory concentration (MIC) against the ESKAPE pathogens was determined using the broth microdilution method^81, 82 in Luria-Bertani (LB) medium. The MIC value was defined as the lowest concentration of peptide at which no microbial growth was observed. A. baumannii ATCC19606, E. coli ATCC11775, E. coli AIC221, E. coli AIC222, K. pneumoniae ATCC13883, S. aureus ATCC12600 P. aeruginosa PAO1, and P. aeruginosa PA14 were incubated on agar plates, and after 24 h, three isolated colonies were inoculated to 5 mL of Luria-Bertani (LB) broth and maintained at 37° C. overnight with shaking. Peptides were then added to 96-well polystyrene microtiter plates at concentrations ranging from 0 to 128 μmol L^−1, and 5×10^5 CFU mL^−1 of each bacterium was inoculated in each well. The plates were incubated at 37° C. for 24 h. Bacterial growth was measured using a microplate reader at 610 nm. Three independent replicates were performed.
# [11] = tested on: K. pneumoniae ATCC13883; assay: Broth microdilution MIC, ESKAPE pathogens; format: cell-based; conditions: LB, 37° C., 24 h
# Procedure: as §2
# [12] = tested on: P. aeruginosa PA14; assay: Broth microdilution MIC, ESKAPE pathogens; format: cell-based; conditions: LB, 37° C., 24 h
# Procedure: as §2
# [13] = tested on: P. aeruginosa PAO1; assay: Broth microdilution MIC, ESKAPE pathogens; format: cell-based; conditions: LB, 37° C., 24 h
# Procedure: as §2
# [14] = tested on: A. baumannii ATCC19606; assay: Broth microdilution MIC, ESKAPE pathogens; format: cell-based; conditions: LB, 37° C., 24 h
# Procedure: as §2
# [15] = tested on: E. coli AIC222; assay: Broth microdilution MIC, ESKAPE pathogens; format: cell-based; conditions: LB, 37° C., 24 h
# Procedure: as §2
# [16] = tested on: E. coli AIC221; assay: Broth microdilution MIC, ESKAPE pathogens; format: cell-based; conditions: LB, 37° C., 24 h
# Procedure: as §2
# [17] = tested on: E. coli ATCC11775; assay: Broth microdilution MIC, ESKAPE pathogens; format: cell-based; conditions: LB, 37° C., 24 h
# Procedure: as §2
substance,measurement,setting,value
"FLGAIGNVLKSIL-NH2 [TV, Phe-Leu-Gly-Ala-Ile-Gly-Asn-Val-Leu-Lys-Ser-Ile-Leu]",MIC C. tropicalis IOC 4560,[1],3.1 µM
same,MIC B. megaterium ATCC 10778,[2],6.3 µM
same,MIC C. albicans MDM8,[3],25 µM
same,MIC M. luteus A270,[4],6.3 µM
same,MIC S. marcescens ATCC 4112,[5],6.3 µM
same,MIC S. epidermidis ATCC 12228,[6],>50 µM
same,"Hemolytic activity, concentration of peptide needed to kill 10% of red blood cells",[7],0.2 µmol/L
same,MHC,[7],0.2 µmol/L
same,"outer membrane permeabilization, NPN fluorescence",[8],increased fluorescence compared to the control
same,Helical fraction (fH) PBS,[9],0.04
same,Helical fraction (fH) POPC,[9],0.12
same,Helical fraction (fH) POPC:DOPE,[9],0.35
same,Helical fraction (fH) POPC:POPG,[9],0.06
same,Helical fraction (fH) SDS,[9],0.28
same,Helical fraction (fH) TFE/Water,[9],0.50
same,Helical fraction (fH) Water,[9],0.04
same,MIC S. aureus ATCC12600,[10],16 µM
same,MIC K. pneumoniae ATCC13883,[11],16 µM
same,MIC P. aeruginosa PA14,[12],128 µM
same,MIC P. aeruginosa PAO1,[13],128 µM
same,MIC A. baumannii ATCC19606,[14],16 µM
same,MIC E. coli AIC222,[15],8 µM
same,MIC E. coli AIC221,[16],16 µM
same,MIC E. coli ATCC11775,[17],32 µM
"FLGALWNVAKSVF-NH2 [VmCT1, Phe-Leu-Gly-Ala-Len-Trp-Asu-Val-Ala-Lys-Ser-Val-Phe, reference compound]",MIC C. tropicalis IOC 4560,[1],12.5 µM
same,MIC B. megaterium ATCC 10778,[2],1.6 µM
same,MIC C. albicans MDM8,[3],12.5 µM
same,MIC M. luteus A270,[4],0.8 µM
same,MIC S. marcescens ATCC 4112,[5],0.4 µM
same,MIC S. epidermidis ATCC 12228,[6],3.1 µM
same,MHC,[7],6.3 µmol/L
same,"outer membrane permeabilization, NPN fluorescence",[8],increased fluorescence compared to the control
same,Helical fraction (fH) PBS,[9],0.03
same,Helical fraction (fH) POPC,[9],0.42
same,Helical fraction (fH) POPC:DOPE,[9],0.55
same,Helical fraction (fH) POPC:POPG,[9],0.25
same,Helical fraction (fH) SDS,[9],0.17
same,Helical fraction (fH) TFE/Water,[9],0.30
same,Helical fraction (fH) Water,[9],0.05
same,MIC S. aureus ATCC12600,[10],8 µM
same,MIC K. pneumoniae ATCC13883,[11],64 µM
same,MIC P. aeruginosa PA14,[12],128 µM
same,MIC P. aeruginosa PAO1,[13],128 µM
same,MIC A. baumannii ATCC19606,[14],8 µM
same,MIC E. coli AIC222,[15],16 µM
same,MIC E. coli AIC221,[16],32 µM
same,MIC E. coli ATCC11775,[17],16 µM
"FLPLIGRVLSGIL-NH2 [Temporin A, Phe-Leu-Pro-Leu-Ile-Gly-Arg-Val-Leu-Ser-Gly-Ile-Leu, reference compound]",MIC C. tropicalis IOC 4560,[1],12.5 µM
same,MIC B. megaterium ATCC 10778,[2],6.3 µM
same,MIC C. albicans MDM8,[3],25 µM
same,MIC M. luteus A270,[4],3.1 µM
same,MIC S. marcescens ATCC 4112,[5],12.5 µM
same,MIC S. epidermidis ATCC 12228,[6],>50 µM
same,"Hemolytic activity, concentration of peptide needed to kill 10% of red blood cells",[7],0.2 µmol/L
same,MHC,[7],0.2 µmol/L
same,"outer membrane permeabilization, NPN fluorescence",[8],increased fluorescence compared to the control
same,Helical fraction (fH) PBS,[9],0.07
same,Helical fraction (fH) POPC,[9],0.31
same,Helical fraction (fH) POPC:DOPE,[9],0.44
same,Helical fraction (fH) POPC:POPG,[9],0.19
same,Helical fraction (fH) SDS,[9],0.47
same,Helical fraction (fH) TFE/Water,[9],0.65
same,Helical fraction (fH) Water,[9],0.08
same,MIC S. aureus ATCC12600,[10],8 µM
same,MIC K. pneumoniae ATCC13883,[11],128 µM
same,MIC P. aeruginosa PA14,[12],128 µM
same,MIC P. aeruginosa PAO1,[13],128 µM
same,MIC A. baumannii ATCC19606,[14],32 µM
same,MIC E. coli AIC222,[15],32 µM
same,MIC E. coli AIC221,[16],128 µM
same,MIC E. coli ATCC11775,[17],64 µM
"ILGAILNVLKSLG-NH2 [PV, Ile-Leu-Gly-Ala-Ile-Leu-Asn-Val-Leu-Lys-Ser-Leu-Gly]",MIC C. tropicalis IOC 4560,[1],6.3 µM
same,MIC B. megaterium ATCC 10778,[2],12.5 µM
same,MIC C. albicans MDM8,[3],12.5 µM
same,MIC M. luteus A270,[4],3.1 µM
same,MIC S. marcescens ATCC 4112,[5],12.5 µM
same,MIC S. epidermidis ATCC 12228,[6],>50 µM
same,"Hemolytic activity, concentration of peptide needed to kill 10% of red blood cells",[7],25 µmol/L
same,MHC,[7],25 µmol/L
same,Helical fraction (fH) PBS,[9],0.08
same,Helical fraction (fH) POPC,[9],0.44
same,Helical fraction (fH) POPC:DOPE,[9],0.28
same,Helical fraction (fH) POPC:POPG,[9],0.63
same,Helical fraction (fH) SDS,[9],0.60
same,Helical fraction (fH) TFE/Water,[9],0.68
same,Helical fraction (fH) Water,[9],0.13
same,MIC S. aureus ATCC12600,[10],16 µM
same,MIC K. pneumoniae ATCC13883,[11],64 µM
same,MIC P. aeruginosa PA14,[12],128 µM
same,MIC A. baumannii ATCC19606,[14],32 µM
same,MIC E. coli AIC222,[15],16 µM
same,MIC E. coli AIC221,[16],32 µM
same,MIC E. coli ATCC11775,[17],32 µM

# Source: patent publication US20260250337A1, “HYBRID ANTIMICROBIAL PEPTIDES” (UNIVERSIDADE FEDERAL DO ABC, priority 2023, published 2026)
